According to publication doi:10.1101/2023.10.02.560523v1, “Quantitative target engagement of RIPK1 in human whole blood via the cellular thermal shift assay for potential pre-clinical and clinical applications” (biorxiv, 2023):

Molecular target: T1, RIPK1 (receptor interacting serine/threonine-protein kinase 1) (Homo sapiens, UniProt Q13546)
T1 construct: endogenous untagged full-length protein in unprocessed human whole blood of healthy donors
T1 sequence (Q13546 1-671): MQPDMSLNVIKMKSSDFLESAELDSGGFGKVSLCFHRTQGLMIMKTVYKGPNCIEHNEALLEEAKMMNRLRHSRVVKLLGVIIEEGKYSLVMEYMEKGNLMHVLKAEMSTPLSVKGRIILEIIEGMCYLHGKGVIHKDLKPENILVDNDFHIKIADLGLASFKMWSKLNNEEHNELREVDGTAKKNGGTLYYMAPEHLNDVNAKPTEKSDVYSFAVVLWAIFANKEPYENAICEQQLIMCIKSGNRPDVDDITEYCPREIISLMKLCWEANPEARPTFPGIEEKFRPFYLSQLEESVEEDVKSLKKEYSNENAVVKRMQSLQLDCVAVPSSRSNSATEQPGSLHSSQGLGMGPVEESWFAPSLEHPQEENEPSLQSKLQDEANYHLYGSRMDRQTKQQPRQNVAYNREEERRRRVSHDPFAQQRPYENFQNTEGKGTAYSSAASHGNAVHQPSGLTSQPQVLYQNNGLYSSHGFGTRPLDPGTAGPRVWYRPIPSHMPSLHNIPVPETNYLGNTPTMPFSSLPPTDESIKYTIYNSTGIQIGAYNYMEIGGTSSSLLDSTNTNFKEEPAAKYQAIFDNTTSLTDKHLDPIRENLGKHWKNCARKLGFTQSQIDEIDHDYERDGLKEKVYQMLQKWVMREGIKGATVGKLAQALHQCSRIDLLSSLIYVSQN
Experiment: MSD TEAR1 occupancy immunoassay, human whole blood
Format: cell-based
Conditions: 1 h at 37 °C with compound, no heating; N=1 donor; unreliable
From the text: MSD TEAR1 occupancy immunoassay, human whole blood on RIPK1 (receptor interacting serine/threonine-protein kinase 1)

COc1ccc(-n2c(SCC#N)nc3sc4c(c3c2=O)CCCC4)cc1 [necrostatin 5]
EC50: 340 nM
